According to paper PMC7619385 (ACS infectious diseases, 2025):
Structures can show the parent of a compound that is named as a salt. Where two headings read alike, the source gives them in different places.

Target: T1, LmxCLK1 (Leishmania mexicana, UniProt E9AMP2)
T1 sequence (E9AMP2 1-422): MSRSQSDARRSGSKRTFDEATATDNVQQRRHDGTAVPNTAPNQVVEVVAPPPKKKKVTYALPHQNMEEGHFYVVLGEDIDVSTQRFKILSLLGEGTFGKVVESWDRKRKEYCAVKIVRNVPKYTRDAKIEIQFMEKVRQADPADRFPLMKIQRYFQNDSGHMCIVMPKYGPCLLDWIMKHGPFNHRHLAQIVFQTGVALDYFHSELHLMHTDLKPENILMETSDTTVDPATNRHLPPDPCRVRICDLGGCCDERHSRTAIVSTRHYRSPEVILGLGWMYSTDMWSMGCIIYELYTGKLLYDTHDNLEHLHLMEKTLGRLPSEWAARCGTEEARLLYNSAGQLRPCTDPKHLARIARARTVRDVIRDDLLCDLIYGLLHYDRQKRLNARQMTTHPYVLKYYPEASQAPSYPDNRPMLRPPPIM
Test: biochemical
Format: binding

[1] = DSF, 10 µM compound, 2 µM LmxCLK1, Run 1
[2] = DSF, 10 µM compound, 2 µM LmxCLK1, Run 2
[3] = DSF, 10 µM compound, 2 µM LmxCLK1, mean of two runs
[4] = DSF, 10 µM compound, 2 µM LmxCLK1, Run 1, read-out: ΔTm Run 1
[5] = DSF, 10 µM compound, 2 µM LmxCLK1, Run 2, read-out: ΔTm Run 2
[6] = DSF, 10 µM compound, 2 µM LmxCLK1, mean of two runs, read-out: ΔTm Average

Structure (SMILES) | ΔTm Run 1 [1] [°C] | ΔTm Run 2 [2] [°C] | ΔTm Average [3] [°C] | ΔTm at 10 µM [4] [°C] | ΔTm at 10 µM [5] [°C] | ΔTm at 10 µM [6] [°C] | also measured
Cn1c(Nc2ccc(C(F)(F)F)cc2)nc2cc(Oc3ccnc(-c4ncc(C(F)(F)F)[nH]4)c3)ccc21 [RAF265 (CHIR-265)] | -0.1 | -0.3 | -0.2 | – | – | – | –
O=C(NCc1cccc(O)c1)Nc1nc(-c2ccncc2)cs1 [RKI-1447] | -0.1 | -0.1 | -0.1 | – | – | – | –
CO[C@H]1C[C@@H]2CC[C@@H](C)[C@@](O)(O2)C(=O)C(=O)N2CCCC[C@H]2C(=O)O[C@H]([C@H](C)C[C@@H]2CC[C@@H](O)[C@H](OC)C2)CC(=O)[C@H](C)/C=C(\C)[C@@H](O)[C@@H](OC)C(=O)[C@H](C)C[C@H](C)/C=C/C=C/C=C/1C [Rapamycin (Sirolimus)] | – | – | – | 0.3 | -0.1 | 0.1 | –
CO[C@H]1C[C@@H]2CC[C@@H](C)[C@@](O)(O2)C(=O)C(=O)N2CCCC[C@H]2C(=O)O[C@H]([C@H](C)C[C@@H]2CC[C@@H](OP(C)(C)=O)[C@H](OC)C2)CC(=O)[C@H](C)/C=C(\C)[C@@H](O)[C@@H](OC)C(=O)[C@H](C)C[C@H](C)/C=C/C=C/C=C/1C [Ridaforolimus (Deforolimus)] | 0.0 | 0.0 | 0.0 | – | – | – | –
COc1cc(OC)c(/C=C/S(=O)(=O)Cc2ccc(OC)c(NCC(=O)O)c2)c(OC)c1 [Rigosertib (ON-01910)] | -0.2 | -0.4 | -0.3 | – | – | – | –
CS(=O)(=O)O.Cn1cc(C2=C(c3cn(CCCSC(=N)N)c4ccccc34)C(=O)NC2=O)c2ccccc21 [Ro 31-8220 Mesylate] | 1.1 | 1.6 | 1.3 | – | – | – | –
N#CC[C@H](C1CCCC1)n1cc(-c2ncnc3[nH]ccc23)cn1 [Ruxolitinib (INCB018424)] | – | – | – | 0.9 | 1.1 | 1 | –
CCn1c(N)c(C(=O)NC)c(=O)c2ccc(C#C[C@@](C)(O)COC)nc21 [SAR131675] | 0.0 | -0.1 | 0.0 | – | – | – | –
CCn1c(=O)c(-c2cc[nH]n2)cc2c(C)nc(N)nc21 [SAR245409 (XL765)] | 0.1 | -0.2 | 0.0 | – | – | – | –
Oc1ccc(-c2nc(-c3ccc(F)cc3)c(-c3ccncc3)[nH]2)cc1 [SB202190 (FHPI)] | 0.2 | 0.4 | 0.3 | – | – | – | –
CN(C)CCOc1ccc(-c2nc(-c3ccncc3)c(-c3ccc4c(c3)CC/C4=N\O)[nH]2)cc1 [SB590885] | – | – | – | -0.1 | -0.4 | -0.2 | –
CN1CCC(CNc2ccc3ncc(-c4cccc(OC(F)(F)F)c4)n3n2)CC1 [SGI-1776 free base] | 0.7 | 0.5 | 0.6 | – | – | – | –
Cn1cc(-c2ccc3nnc(Sc4ccc5ncccc5c4)n3n2)cn1 [SGX-523] | – | – | – | -0.1 | -0.2 | -0.1 | –
Oc1ccc(Nc2nc(-c3ccc(Cl)cc3)cs2)cc1 [SKI II] | 0.1 | 0.1 | 0.1 | – | – | – | –
N#C/C(=C(/N)Sc1ccc(N)cc1)c1ccccc1C(F)(F)F [SL-327] | -0.2 | -0.2 | -0.2 | – | – | – | –
O=C1NC(=O)/C(=C/c2cccc(C(F)(F)F)c2)S1 [SMI-4a] | – | – | – | – | – | – | ΔTm Average: -0.2; ΔTm Run 1: -0.3; ΔTm Run 2: -0.1
CC(C)(C)c1cnc(CSc2cnc(NC(=O)C3CCNCC3)s2)o1 [SNS-032 (BMS-387032)] | 0.2 | 0.0 | 0.1 | – | – | – | –
O=C(Nc1cccc(Cl)c1)Nc1ncc(CCNc2ncnc3ccsc23)s1 [SNS-314 Mesylate] | – | – | – | 3.6 | 8.3 | 5.9 | –
Oc1c2ccccc2c2c3c(cccc13)N=N2 [SP600125] | – | – | – | 0.1 | -0.3 | -0.1 | –
COc1c(C)c(C(=O)c2ccc(N)c(C(=O)[O-])c2)n2ccccc12.[Na+] [SSR128129E] | – | – | – | – | – | – | ΔTm Average: -0.1; ΔTm Run 1: -0.1; ΔTm Run 2: -0.1
CN1CCN(CCOc2cc(OC3CCOCC3)c3c(Nc4c(Cl)ccc5c4OCO5)ncnc3c2)CC1 [Saracatinib (AZD0530)] | 0.8 | 0.7 | 0.7 | – | – | – | –
Cn1cnc2c(F)c(Nc3ccc(Br)cc3Cl)c(C(=O)NOCCO)cc21 [Selumetinib (AZD6244)] | – | – | – | 0.3 | 0.3 | 0.3 | –

Structure (SMILES) | ΔTm Run 1 [1] [°C] | ΔTm Run 2 [2] [°C] | ΔTm Average [3] [°C] | ΔTm at 10 µM [4] [°C] | ΔTm at 10 µM [5] [°C] | ΔTm at 10 µM [6] [°C] | also measured
CNC(=O)c1cc(Oc2ccc(NC(=O)Nc3ccc(Cl)c(C(F)(F)F)c3)cc2)ccn1 [Sorafenib Tosylate] | 0.3 | – | 0.3 | – | 0.2 | – | –
CNC(=O)c1cc(Oc2ccc(NC(=O)Nc3ccc(Cl)c(C(F)(F)F)c3)cc2)ccn1 [Sorafenib] | -0.3 | 0.2 | -0.1 | – | – | – | –
CN1CCN(c2nc(C3=C(c4c[nH]c5ccccc45)C(=O)NC3=O)c3ccccc3n2)CC1 [Sotrastaurin] | – | – | – | 1.2 | 0.9 | 1 | –
CCN(CC)CCNC(=O)c1c(C)[nH]c(/C=C2\C(=O)Nc3ccc(F)cc32)c1C [Sunitinib Malate] | – | – | – | 0.3 | 0.2 | 0.2 | –
CC(C)(O)CC(=O)NCCn1ccc2ncnc(Nc3ccc(Oc4cccc(C(F)(F)F)c4)c(Cl)c3)c21 [TAK-285] | – | – | – | -0.5 | -0.2 | -0.3 | –
N#Cc1c(Oc2ccc(F)c(NC(=O)Cc3cccc(C(F)(F)F)c3)c2)ccc2nc(NC(=O)C3CC3)sc12 [TAK-632] | 0.2 | 0.1 | 0.1 | – | – | – | –
CCc1nc(-c2cccc(C)c2)c(-c2ccnc(NC(=O)c3ccccc3)c2)s1 [TAK-715] | – | – | – | 0.5 | 0.8 | 0.7 | –
Cn1c(=O)c(F)c(Nc2ccc(I)cc2F)c2c(=O)n(C[C@@H](O)CO)cnc21 [TAK-733] | – | – | – | 0.2 | -0.3 | -0.1 | –
COc1ccc(C(=O)Nc2sc3c(c2C(N)=O)CCCC3)cc1OC [TCS 359] | 0.0 | 0.0 | 0.0 | – | – | – | –
Nc1nc(N)c2nc(-c3cccc(O)c3)c(-c3cccc(O)c3)nc2n1 [TG100-115] | – | – | – | – | – | – | ΔTm Average: 1.5 °C; ΔTm Run 1: 1.7 °C; ΔTm Run 2: 1.3 °C
Nc1nc(N)c2nc(-c3cccc(O)c3)cnc2n1 [TG100713] | – | – | – | – | – | – | ΔTm Average: -0.1; ΔTm Run 1: 0.1 °C; ΔTm Run 2: -0.2
Cc1cnc(Nc2ccc(N3CCN(C)CC3)cc2)nc1Nc1cccc(S(=O)(=O)NC(C)(C)C)c1 [TG101209] | 0.2 | -0.3 | 0.0 | – | – | – | –
Cc1cnc(Nc2ccc(OCCN3CCCC3)cc2)nc1Nc1cccc(S(=O)(=O)NC(C)(C)C)c1 [TG101348 (SAR302503)] | 0.2 | 0.3 | 0.3 | – | – | – | –
Cc1cc(C(C)Nc2ccccc2)c2nc(N3CCOCC3)cc(=O)n2c1 (stereo not drawn) [TGX-221] | 0.5 | 0.3 | 0.4 | – | – | – | –
Cc1[nH]c(/C=C2\C(=O)Nc3ccccc32)c(C)c1CCC(=O)O [TSU-68 (SU6668)] | 0.1 | -0.1 | 0.0 | – | – | – | –
Nc1cccc(-c2cc3c(Oc4cccc(O)c4)ncnc3[nH]2)c1 [TWS119] | 0.1 | 0.2 | 0.1 | – | – | – | –
COc1cc2c(N3CCN(C(=O)Nc4ccc(OC(C)C)cc4)CC3)ncnc2cc1OCCCN1CCCCC1 [Tandutinib (MLN518)] | 0.1 | -0.1 | 0.0 | – | – | – | –
CNC(=O)c1cc(COc2nnc(Nc3ccc(Cl)cc3)c3ccoc23)ccn1 [Telatinib] | – | – | – | -0.3 | -0.5 | -0.4 | –
CO[C@H]1C[C@@H]2CC[C@@H](C)[C@@](O)(O2)C(=O)C(=O)N2CCCC[C@H]2C(=O)O[C@H]([C@H](C)C[C@@H]2CC[C@@H](OC(=O)C(C)(CO)CO)[C@H](OC)C2)CC(=O)[C@H](C)/C=C(\C)[C@@H](O)[C@@H](OC)C(=O)[C@H](C)C[C@H](C)/C=C/C=C/C=C/1C [Temsirolimus (CCI-779)] | -0.1 | -0.3 | -0.2 | – | – | – | –
COc1ccc2cc(-c3nc(-c4ccc([S+](C)[O-])cc4)[nH]c3-c3ccncc3)ccc2c1 (stereo not drawn) [Tie2 kinase inhibitor] | – | – | – | – | – | – | ΔTm Average: 0.1 °C; ΔTm Run 1: 0.1 °C; ΔTm Run 2: 0 °C
COc1cc2nccc(Oc3ccc(NC(=O)Nc4cc(C)on4)c(Cl)c3)c2cc1OC [Tivozanib (AV-951)] | – | – | – | 0.2 | 0 | 0.1 | –
Nc1ccc(-c2ccc3ncc4ccc(=O)n(-c5cccc(C(F)(F)F)c5)c4c3c2)cn1 [Torin 2] | -0.1 | 0.0 | 0.0 | – | – | – | –
